Paper PMC8769378, “Underlining the Importance of Peripheral Protic Functional Groups to Enhance the Proton Exchange of Gd-Based MRI Contrast Agents” (Inorganic Chemistry, 2021)

Assay: Stability and protonation constants of Cu^II complexes by spectrophotometry
Type: physicochemical
Procedure: The stability constants of CuL2 were determined by spectrophotometry studying the Cu^2+–L2 systems at the absorption band of Cu^2+ complexes at [H^+] = […] in the wavelength range 210–350 nm. The concentrations of Cu^2+ and L2 were 0.72 mM. The H^+ concentration in the samples was adjusted with the addition of calculated amounts of 3 M HCl. (I = [Na^+] + [H^+] = 0.15, [H^+] ≤ 0.15 M). The samples were kept at 25 °C for 1 week. The absorbance values of the samples were determined at 11 wavelengths (260, 269, 278, 287, 296, 305, 314, 323, 332, 341, and 350 nm). For the calculations of the stability and protonation constants of the […], the molar absorptivities of CuCl2, CuL2, Cu(HL2), Cu(H2L2), and Cu(H3L2) were determined by recording the spectra of 1.0 × 10^–3, 3.0 × 10^–4, 6.0 × 10^–4, and 9.0 × 10^–4 M solutions of CuCl2 and CuL2 in the pH range 1.7–7.5. The pH was adjusted by stepwise addition of concentrated NaOH or HCl solutions. The spectrophotometric measurements were made with the use of a PerkinElmer Lambda 365 UV–vis spectrophotometer at 25 °C, using 1.0 cm cells. The protonation and stability constants were calculated with the PSEQUAD program.[35]
The stability and protonation constants of CaII-, ZnII-, CuII- and GdIII-complexes of L2, expressed by Eqs. (S2) and (S3), were determined by pH-potentiometry and spectrophotometry at 25 °C in 0.15 M […]
where i=0, 1, 2, 3. The KML and KMHiL values of CaII-, ZnII- and CuII-L2 complexes were calculated from the pH-potentiometric titration data obtained at 1:1 metal to ligand concentration ratios. In the calculations, the best fitting of the mL NaOH – pH data was obtained by assuming the formation of […]
ML, MHL, MH2L and MH3L species. […]
– pH data of the “out-of-cell” samples, which had equilibrium pH values in the range of 2.0 – 4.0.
For the complete characterization of the Gd3+-L2 system, the GdL2 complex (which is formed completely at about pH=3.5) was titrated with 0.2 M NaOH solution in the pH range 3.5 – 12.0.
(also on this page, place not known: MH 2L H3L w as derivative s “out -of-cage” *Ln(H 2DOTA)), groups , Ln III-ion donor s . Ln III system. 11,12 th out -of-cage * KGd(H2L) Gd 3+ - ligand 2. 0 Gd 3+-L2 GdL 2 is pH= 3.5) M pH ]L][M[ ]ML[K ML = ]H][LMH[ ]LMH[K 1i i LMHi + − = ]LH][Ln[ )]LH(Ln[K 2 3 2 )LH(Ln 2 + * =) […]
the deprotonation of the Gd(HL) and GdL species, respectively. […]
By taking into account the protonation constants of the ligand L2, the stability constant of the *Gd(H2L2) intermediate and the stability and protonation constant of the GdL2 complex, the species distribution of the Gd3+ - L2 system was calculated (Figure S1). […]
Then, the stability and protonation constants of CuL2 were determined by spectrophotometry. […]

CuH2L (log K) (0.15 M NaCl, 25 °C): 3.36 (2)
CuH3L (log K) (0.15 M NaCl, 25 °C): 1.36 (8)
CuHL (log K, protonation constant of the complex) (0.15 M NaCl, 25 °C): 3.84 (2)
CuL (log K, stability constant) (spectrophotometry, I = [Na^+]+[H^+] = 0.15 M, [H^+] ≤ 0.15 M, 298 K): 21.87 (6)
SMILES: O=C(O)CN1CCN(CC(=O)O)CCN(C[C@@H](O)C(=O)O)CCN(CC(=O)O)CC1 [L2, (R)2,2′,2″-(10-(2-Carboxy-2-hydroxyethyl)-1,4,7,10-tetraazacyclododecane-1,4,7-triyl) Triacetic Acid]
